Laboratory results taken from patent publication US9120812B2, “Pyrimidooxazocine derivatives as mTOR-inhibitors” (SANOFI, priority 2012, dated 2015).

Key:
[1] = test system: Akt-pS473 in U87MG cells; conditions: Homo sapiens, U-87 MG, read-out: U87 Akt-pS473 % Inhibition or IC50, nM (IC50), U87MG cells
[2] = test system: U87MG tumour cells; experiment: Test of in vitro proliferation of U87MG tumour cells; type: cell-based; conditions: Homo sapiens, U-87 MG, 72 h, U87MG cells, 72 hours; read-out: U87 Cell Proliferation IC50
Experimental: Model 4: Test of in vitro Proliferation of U87MG Tumour Cells.
The cell growth is determined with the reagent CellTiter 96 AQueous One Solution Cell Proliferation Assay from Promega (Cat. No. G3581).

[3] = target: mTOR (human recombinant aa mTOR 1360-2549) (Homo sapiens (Human), UniProt P42345); experiment: mTOR enzymatic test by TR-FRET (phosphorylation of GFP-4EBP1); type: biochemical
Method in brief: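 TR-FRET detection of GFP-4EBP1 phosphorylation by a terbium-labelled anti-phospho-Thr46 antibody. Kinase reaction ran 30 min at room temperature, was quenched with EDTA (10 mM final) plus Tb-antibody (2 nM final) and left 60 min. Emission at 520 and 490 nm after 340 nm excitation, reported as the 520/490 ratio.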

[4] = target: PI3Kα (p110α/p85α) (Homo sapiens (Human), UniProt P42336); experiment: PI3Kα enzymatic test by measuring the consumption of ATP; type: biochemical
Experimental: Model 2: PI3Kα Enzymatic Test by Measuring the Consumption of ATP.
The test uses a lucifeurerin/luciferase system to measure the concentration of ATP and its consumption during the enzymatic reaction. The test is performed in 96-well format (Corning/Costar 96 black flat-bottomed half-wells plate, ref. 3694) in a total volume of 30 μl.
To 1 μl of inhibitor in 100% DMSO are added (final concentrations) 50 μM of the substrate PIP2 ((L-α-phosphatidyl-D-myoinositol 4,5-bisphosphate, Echelon 117P-4516-0500), 2 μM of ATP and 1.7 μg/ml of PI3Kα, (p110α/p85α, Invitrogen PV4788) in a buffer of Tris/HCl 50 mM pH 7.5, EGTA 1 mM, MgCl2 10 mM, Chaps 0.03%, 1 mM DTT). After 90 minutes, the reaction is quenched by adding 20 μl/well of KinaseGlo reagent (Promega V6713). After 10 minutes in the dark, the luminescence is read on the PHERAStar microplate reader (reading at 0.8 sec/well).
The IC50 values are determined by the preparation of successive threefold dilutions on at least a scale of 10 000.

Chain of PI3Kα (p110α/p85α) (P42336 whole entry): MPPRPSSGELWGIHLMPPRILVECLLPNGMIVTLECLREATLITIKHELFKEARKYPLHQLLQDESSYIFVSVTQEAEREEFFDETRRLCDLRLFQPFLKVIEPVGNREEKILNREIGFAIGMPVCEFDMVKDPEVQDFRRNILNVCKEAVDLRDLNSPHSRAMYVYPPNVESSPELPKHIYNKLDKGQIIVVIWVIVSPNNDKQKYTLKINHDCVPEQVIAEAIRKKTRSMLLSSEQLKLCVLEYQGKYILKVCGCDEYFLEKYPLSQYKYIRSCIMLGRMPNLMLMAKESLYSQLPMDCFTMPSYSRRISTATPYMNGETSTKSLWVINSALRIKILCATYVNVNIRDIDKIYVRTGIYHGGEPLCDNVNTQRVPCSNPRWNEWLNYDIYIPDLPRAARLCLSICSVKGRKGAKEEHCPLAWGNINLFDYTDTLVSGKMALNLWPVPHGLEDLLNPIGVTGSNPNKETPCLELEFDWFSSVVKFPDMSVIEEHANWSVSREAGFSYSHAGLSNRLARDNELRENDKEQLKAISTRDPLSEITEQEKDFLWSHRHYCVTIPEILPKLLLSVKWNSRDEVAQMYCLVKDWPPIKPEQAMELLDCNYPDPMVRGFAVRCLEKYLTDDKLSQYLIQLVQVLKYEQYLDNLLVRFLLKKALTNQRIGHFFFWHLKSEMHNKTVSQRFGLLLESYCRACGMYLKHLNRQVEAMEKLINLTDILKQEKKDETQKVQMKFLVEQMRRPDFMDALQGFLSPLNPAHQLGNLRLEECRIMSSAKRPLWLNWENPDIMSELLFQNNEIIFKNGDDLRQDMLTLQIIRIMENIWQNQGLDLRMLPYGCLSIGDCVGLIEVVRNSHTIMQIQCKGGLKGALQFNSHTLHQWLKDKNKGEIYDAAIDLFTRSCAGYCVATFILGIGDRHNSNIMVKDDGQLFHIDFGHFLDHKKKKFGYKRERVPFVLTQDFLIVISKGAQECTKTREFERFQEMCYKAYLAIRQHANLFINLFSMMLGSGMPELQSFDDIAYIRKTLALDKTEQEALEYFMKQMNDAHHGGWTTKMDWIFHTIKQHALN
Chain of PI3Kα (p110α/p85α) (P27986 whole entry partner): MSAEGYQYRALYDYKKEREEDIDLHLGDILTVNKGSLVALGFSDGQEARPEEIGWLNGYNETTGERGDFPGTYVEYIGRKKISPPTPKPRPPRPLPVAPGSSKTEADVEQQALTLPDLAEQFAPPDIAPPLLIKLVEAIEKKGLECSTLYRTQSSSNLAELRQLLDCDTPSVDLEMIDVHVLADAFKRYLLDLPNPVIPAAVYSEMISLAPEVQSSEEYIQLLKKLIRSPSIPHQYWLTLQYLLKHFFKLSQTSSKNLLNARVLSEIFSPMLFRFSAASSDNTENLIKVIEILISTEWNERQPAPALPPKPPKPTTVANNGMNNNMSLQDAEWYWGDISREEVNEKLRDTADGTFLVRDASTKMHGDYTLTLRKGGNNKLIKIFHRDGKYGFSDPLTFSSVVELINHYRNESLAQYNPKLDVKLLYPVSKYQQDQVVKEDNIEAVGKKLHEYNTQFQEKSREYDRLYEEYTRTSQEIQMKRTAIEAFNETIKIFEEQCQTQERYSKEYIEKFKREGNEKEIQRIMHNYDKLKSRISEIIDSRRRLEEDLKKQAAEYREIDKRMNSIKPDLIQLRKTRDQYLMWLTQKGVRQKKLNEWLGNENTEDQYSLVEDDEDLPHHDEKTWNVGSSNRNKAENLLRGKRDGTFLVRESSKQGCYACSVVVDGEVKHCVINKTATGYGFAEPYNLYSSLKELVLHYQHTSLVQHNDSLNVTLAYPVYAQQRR
Chain of mTOR (human recombinant aa mTOR 1360-2549) (P42345 1360-2549): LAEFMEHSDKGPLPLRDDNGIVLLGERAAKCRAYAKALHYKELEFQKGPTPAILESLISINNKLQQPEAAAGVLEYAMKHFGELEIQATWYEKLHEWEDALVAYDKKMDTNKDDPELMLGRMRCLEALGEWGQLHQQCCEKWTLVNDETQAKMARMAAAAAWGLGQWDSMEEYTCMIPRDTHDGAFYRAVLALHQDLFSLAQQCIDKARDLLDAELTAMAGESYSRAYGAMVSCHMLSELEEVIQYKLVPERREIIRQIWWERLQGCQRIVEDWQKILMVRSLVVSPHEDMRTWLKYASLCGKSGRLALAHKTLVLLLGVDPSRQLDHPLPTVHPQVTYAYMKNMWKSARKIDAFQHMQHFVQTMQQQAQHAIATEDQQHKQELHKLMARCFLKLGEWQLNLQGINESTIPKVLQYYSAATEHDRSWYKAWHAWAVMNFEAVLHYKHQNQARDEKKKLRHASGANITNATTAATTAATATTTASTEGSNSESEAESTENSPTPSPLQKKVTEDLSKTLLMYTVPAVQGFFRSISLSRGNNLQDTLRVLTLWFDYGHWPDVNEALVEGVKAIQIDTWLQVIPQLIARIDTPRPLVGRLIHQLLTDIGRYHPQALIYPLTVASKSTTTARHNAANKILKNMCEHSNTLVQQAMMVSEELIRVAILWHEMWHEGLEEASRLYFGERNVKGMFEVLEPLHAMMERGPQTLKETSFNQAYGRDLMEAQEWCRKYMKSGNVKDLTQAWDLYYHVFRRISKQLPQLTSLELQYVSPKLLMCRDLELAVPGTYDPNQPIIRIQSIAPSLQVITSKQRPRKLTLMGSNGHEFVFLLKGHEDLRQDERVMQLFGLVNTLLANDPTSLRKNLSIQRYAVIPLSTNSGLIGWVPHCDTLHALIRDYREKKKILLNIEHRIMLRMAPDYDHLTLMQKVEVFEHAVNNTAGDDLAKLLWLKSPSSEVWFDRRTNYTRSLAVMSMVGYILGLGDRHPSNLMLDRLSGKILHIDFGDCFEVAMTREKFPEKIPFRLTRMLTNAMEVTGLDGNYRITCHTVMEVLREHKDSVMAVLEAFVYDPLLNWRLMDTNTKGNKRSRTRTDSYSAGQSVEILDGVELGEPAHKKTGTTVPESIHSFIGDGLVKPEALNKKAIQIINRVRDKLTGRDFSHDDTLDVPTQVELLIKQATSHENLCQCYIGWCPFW

SMILES	IC50 [1]	IC50 [2]	IC50 [3]	PI3Ka IC50 [4]
CCN1CC(C)(C)Oc2nc(N3CC4CCC(C3)O4)nc(-c3ccc(NC(=O)NC)c(F)c3)c2C1=O [Example 1, 1-{4-[6-Ethyl-8,8-dimethyl-2-(8-oxa-3-azabicyclo[3.2.1]oct-3-yl)-5-oxo-5,6,7,8-tetrahydro-9-oxa-1,3,6-triazabenzocyclohepten-4-yl]-2-fluorophenyl}-3-methylurea]	55 nM	197 nM	23 nM	8841 nM
CCN1CC(C)(C)Oc2nc(N3CCOC[C@@H]3C)nc(-c3ccc(NC(=O)NC)c(F)c3)c2C1=O [Example 2, 1-{4-[6-Ethyl-8,8-dimethyl-2-((S)-3-methylmorpholin-4-yl)-5-oxo-5,6,7,8-tetrahydro-9-oxa-1,3,6-triazabenzocyclohepten-4-yl]-2-fluorophenyl}-3-methylurea]	31 nM	142 nM	22 nM	547 nM
CCNC(=O)Nc1ccc(-c2nc(N3CCOC[C@@H]3C)nc3c2C(=O)N(CC)CC(C)(C)O3)cc1F [Example 3, 1-Ethyl-3-{4-[6-ethyl-8,8-dimethyl-2-((S)-3-methylmorpholin-4-yl)-5-oxo-5,6,7,8-tetrahydro-9-oxa-1,3,6-triazabenzocyclohepten-4-yl]-2-fluorophenyl}urea]	48 nM	242 nM	18 nM	2110 nM
CCNC(=O)Nc1ccc(-c2nc(N3CC4CCC(C3)O4)nc3c2C(=O)N(C[C@@H]2CCCN2)CC(C)(C)O3)cc1F [Example 4, 1-{4-[8,8-Dimethyl-2-(8-oxa-3-azabicyclo[3.2.1]oct-3-yl)-5-oxo-6-(S)-1-pyrrolidin-2-ylmethyl-5,6,7,8-tetrahydro-9-oxa-1,3,6-triazabenzocyclohepten-4-yl]-2-fluorophenyl}-3-ethylurea]	> 3000 nM	> 10000 nM	721 nM	>10000 nM
CCNC(=O)Nc1ccc(-c2nc(N3CC4CCC(C3)O4)nc3c2C(=O)N(CCC(=O)O)CC(C)(C)O3)cc1 [Example 7, 3-[4-[4-(3-Ethylureido)phenyl]-8,8-dimethyl-2-(8-oxa-3-azabicyclo[3.2.1]oct-3-yl)-5-oxo-7,8-dihydro-5H-9-oxa-1,3,6-triazabenzocyclohepten-6-yl]propionic acid]	> 3000 nM	> 10000 nM	17 nM	>10000 nM
CCNC(=O)Nc1ccc(-c2nc(N3CC4CCC(C3)O4)nc3c2C(=O)N(CCC(=O)N(C)C)CC(C)(C)O3)cc1 [Example 8, 3-[4-[4-(3-ethylureido)phenyl]-8,8-dimethyl-2-(8-oxa-3-azabicyclo[3.2.1]oct-3-yl)-5-oxo-7,8-dihydro-5H-9-oxa-1,3,6-triazabenzocyclohepten-6-yl]-N,N-dimethylpropionamide]	537 nM	3810 nM	44 nM	>10000 nM
CCNC(=O)Nc1ccc(-c2nc(N3CC4CCC(C3)O4)nc3c2C(=O)N(CC)CC(C)(C)CO3)cc1 [Example 10, 1-Ethyl-3-{4-[6-ethyl-8,8-dimethyl-2-(8-oxa-3-azabicyclo[3.2.1]oct-3-yl)-5-oxo-6,7,8,9-tetrahydro-5H-10-oxa-1,3,6-triazabenzocycloocten-4-yl]phenyl}urea]	611 nM	8770 nM	344 nM	>10000 nM
CCN1CC(C)(C)Oc2nc(N3CCOC[C@@H]3C)nc(-c3ccc(NC(=O)NC)cc3F)c2C1=O [Example 11, 1-{4-[6-ethyl-8,8-dimethyl-2-((S)-3-methylmorpholin-4-yl)-5-oxo-5,6,7,8-tetrahydro-9-oxa-1,3,6-triazabenzocyclohepten-4-yl]-3-fluorophenyl}-3-methylurea]	61 nM	271 nM	13 nM	2300 nM
CCN1CC(C)(C)Oc2nc(N3CCOC[C@@H]3C)nc(-c3ccc(NC(=O)Nc4ccncc4)cc3F)c2C1=O [Example 12, 1-{4-[6-ethyl-8,8-dimethyl-2-((S)-3-methylmorpholin-4-yl)-5-oxo-5,6,7,8-tetrahydro-9-oxa-1,3,6-triazabenzocyclohepten-4-yl]-3-fluorophenyl}-3-pyridin-4-ylurea]	43 nM	121 nM	17 nM	640 nM
CCN1CC(C)(C)Oc2nc(N3CC4CCC(C3)O4)nc(-c3ccc(NC(=O)Nc4ccc(N5CCN(C)CC5)cc4)c(F)c3)c2C1=O [Example 13, 1-{4-[6-ethyl-8,8-dimethyl-2-(8-oxa-3-azabicyclo[3.2.1]oct-3-yl)-5-oxo-5,6,7,8-tetrahydro-9-oxa-1,3,6-triazabenzocyclohepten-4-yl]-2-fluorophenyl}-3-[4-(4-methylpiperazin-1-yl)phenyl]urea]	13 nM	32 nM	132 nM	6470 nM
CCNC(=O)Nc1ccc(-c2nc(N3CC4CCC(C3)O4)nc3c2C(=O)N(C2CCOCC2)CC(C)(C)O3)cc1 [Example 14, 1-{4-[8,8-dimethyl-2-(8-oxa-3-azabicyclo[3.2.1]oct-3-yl)-5-oxo-6-(tetrahydropyran-4-yl)-5,6,7,8-tetrahydro-9-oxa-1,3,6-triazabenzocyclohepten-4-yl]phenyl}-3-ethylurea]	458 nM	1420 nM	41 nM	>10000 nM
Cc1cc(NC(=O)Nc2ccc(-c3nc(N4CC5CCC(C4)O5)nc4c3C(=O)N(C3CCOCC3)CC(C)(C)O4)cc2)no1 [Example 15, 1-{4-[8,8-dimethyl-2-(8-oxa-3-azabicyclo[3.2.1]oct-3-yl)-5-oxo-6-(tetrahydropyran-4-yl)-5,6,7,8-tetrahydro-9-oxa-1,3,6-triazabenzocyclohepten-4-yl]phenyl}-3-(5-methylisoxazol-3-yl)urea]	76 nM	218 nM	12 nM	5300 nM
Cn1ccc(NC(=O)Nc2ccc(-c3nc(N4CC5CCC(C4)O5)nc4c3C(=O)N(C3CCOCC3)CC(C)(C)O4)cc2)n1 [Example 16, 1-{4-[8,8-dimethyl-2-(8-oxa-3-azabicyclo[3.2.1]oct-3-yl)-5-oxo-6-(tetrahydropyran-4-yl)-5,6,7,8-tetrahydro-9-oxa-1,3,6-triazabenzocyclohepten-4-yl]phenyl}-3-(1-methyl-1H-pyrazol-3-yl)urea]	269 nM	527 nM	19 nM	>10000 nM
CCN1CC(C)(C)Oc2nc(N3CC4CCC(C3)O4)nc(-c3ccc(NC(=O)Nc4cccc(OC(F)F)c4)cc3)c2C1=O [Example 18, 1-(3-difluoromethoxyphenyl)-3-{4-[6-ethyl-8,8-dimethyl-2-(8-oxa-3-azabicyclo[3.2.1]oct-3-yl)-5-oxo-5,6,7,8-tetrahydro-9-oxa-1,3,6-triazabenzocyclohepten-4-yl]phenyl}urea]	29 nM	63 nM	25 nM	7570 nM
CCN1CC(C)(C)Oc2nc(N3CC4CCC(C3)O4)nc(-c3ccc(NC(=O)Nc4ccc(F)cc4F)cc3)c2C1=O [Example 19, 1-(2,4-difluorophenyl)-3-{4-[6-ethyl-8,8-dimethyl-2-(8-oxa-3-azabicyclo[3.2.1]oct-3-yl)-5-oxo-5,6,7,8-tetrahydro-9-oxa-1,3,6-triazabenzocyclohepten-4-yl]phenyl}urea]	28 nM	122 nM	32 nM	6219 nM
CCNC(=O)Nc1ccc(-c2nc(N3CCOCC3)nc3c2C(=O)NCC(C)(C)O3)cc1 [Example 94, 1-[4-(8,8-Dimethyl-2-morpholin-4-yl-5-oxo-5,6,7,8-tetrahydro-9-oxa-1,3,6-triazabenzocyclohepten-4-yl)phenyl]-3-ethylurea]	> 10000 nM	–	112 nM	7320 nM
CN1CC(C)(C)Oc2nc(N3CC4CCC(C3)O4)nc(-c3ccc(NC(=O)Nc4ccc(N5C6CCC5COC6)nc4)c(F)c3)c2C1=O [Example 245, 1-{2-Fluoro-4-[6,8,8-trimethyl-2-(8-oxa-3-azabicyclo[3.2.1]oct-3-yl)-5-oxo-5,6,7,8-tetrahydro-9-oxa-1,3,6-triazabenzocyclohepten-4-yl]phenyl}-3-[6-(3-oxa-8-azabicyclo[3.2.1]oct-8-yl)pyridin-3-yl]urea]	67 nM	–	63 nM	>10000 nM
